The record followed here is paper PMC12655185 (Pharmaceuticals, 2025).

Data set [1] in a line: LogD7.4 determination (octanol/PBS). The class given is physicochemical. The conditions noted are these: octanol / PBS pH 7.4. Here is the method: The obtained solutions from ^67Ga labeling were diluted with water in a 1:1 ratio and brought to pH 7 using aqueous NaOH (1 M). For LogD7.4 determination, 10 μL of neutralized labeling solution was diluted with 290 μL 1× PBS (pH 7.4) and 300 μL 1-Octanol (both pre-saturated by each other). The mixture was vortexed vigorously for 30 s and subsequently centrifuged for 5 min at 16,100 rcf. Defined volumes of each layer (10 μL for PBS, 200 μL for Octanol) were taken and analyzed for their radioactivity (ISOMED 100, Nuvia, Frankfurt, Germany). The partition coefficient LogD7.4 was determined from the decadic logarithm of the fraction of the radioactivity content of the aqueous and octanol layers.

Data set [2] can be described thus: Stability in human serum (radio-HPLC, LC-MS). Type of data set: in vitro ADME. To be noted: for remaining at 24 h: read-out: radioligand intact after 24 h in human serum. How it is done: For human serum stability investigation, 60 μL of the ^67Ga labeling mixture was mixed with 540 μL human serum and incubated at 37 °C. Aliquots of 25 μL were taken after 1, 2, 4 and 24 h. The aliquots were mixed with 75 μL of a mixture called “Supersol” (20% v/v EtOH, 0.5% Triton X-100, 5 mM EDTA, 0.5 mM o-phenantroline, and 0.1% saponine in water) and put on ice for 5 min. Subsequently, the mixtures were centrifuged at 16,100 rcf, 4 °C for 5 min. The supernatant was analyzed by analytical radio-HPLC. Serum half-lives were determined by non-linear regression according to one-phase decay. To determine the stability in labeling buffer, the labeling mixture was left at ambient temperature for 4 h. Subsequently, an aliquot of 5 μL was mixed with 45 μL of Supersol and analyzed with analytical radio-HPLC.
Analytical radio-HPLC was performed on a modular unit consisting of an operating unit (smartline manager 500, Knauer, Berlin, Germany), a pump unit (smartline pump 1000, Knauer, Berlin, Germany), a photo diode array detector (smartline PDA 2800, Knauer, Berlin, Germany) and a γ-detector (Ramona Star, Raytest, Lüttich, Belgium). The system was operated by the software Chromgate 2.8. Chromatography was conducted on a C18 column (Eurospher 100-5, 250 × 4 mm, Knauer, Berlin, Germany) at a flow rate of 1 mL/min.

The nature of the next data set: human serum. To be noted: up to 24 h.

As a reminder, the logD is the decadic logarithm of the distribution of all forms, ionised or not, between an organic phase and buffer at a given pH. A higher logD goes with higher lipophilicity. In general, half-life refers to the time needed for the level to fall by half in the phase considered. Read a low half-life as fast loss.

Where a SMILES comes first, the peptide text is derived from it. [ ]: non-standard residue; d: D form. The star is where a group is joined. X1 = O=C(O)CN1CCN(CC(=O)O)CCN([C@H](CCC(=O)*)C(=O)O)CC1; Sar = CNCC(=O)O

The molecule `CC[C@H](C)[C@H](NC(=O)[C@H](CC(N)=O)NC(=O)[C@@H]1CCCN1C(=O)[C@@H]1CCCN1C(=O)[C@H](CCCNC(=N)N)NC(=O)[C@H](CC(=O)O)NC(=O)[C@H](CC(N)=O)NC(=O)[C@@H](N)CO)C(=O)N[C@@H](CC(C)C)C(=O)N[C@@H](CCC(N)=O)C(=O)N[C@@H](CCCCN)C(=O)N[C@@H](CCCNC(=N)N)C(=O)N(C)CC(=O)N(C)CC(=O)N(C)CC(=O)N[C@@H](CCCCNC(=O)CC[C@H](C(=O)O)N1CCN(CC(=O)O)CCN(CC(=O)O)CC1)C(N)=O` [TJ12P2(K^11)-X3K-[^67Ga]Ga-NODA-GA-CONH2, metal not drawn] (H-SNDRPPNILQKR[Sar][Sar][Sar]K(X1)-NH2) gave a logD in data set [1] of -4.79 ± 0.03. Also, the remaining at 24 h in data set [2] (37 °C) worked out at 89%.
The matching figures for `CC[C@H](C)[C@H](NC(=O)[C@H](CC(N)=O)NC(=O)[C@@H]1CCCN1C(=O)[C@@H]1CCCN1C(=O)[C@H](CCCNC(=N)N)NC(=O)[C@H](CC(=O)O)NC(=O)[C@H](CC(N)=O)NC(=O)[C@@H](N)CO)C(=O)N[C@@H](CC(C)C)C(=O)N[C@@H](CCC(N)=O)C(=O)N[C@@H](CCC(N)=O)C(=O)N[C@@H](CCCNC(=N)N)C(=O)N(C)CC(=O)N(C)CC(=O)N(C)CC(=O)N[C@@H](CCCCNC(=O)CC[C@H](C(=O)O)N1CCN(CC(=O)O)CCN(CC(=O)O)CC1)C(N)=O` [TJ12P2(Q^11)-X3K-[^67Ga]Ga-NODA-GA-CONH2, metal not drawn] (H-SNDRPPNILQQR[Sar][Sar][Sar]K(X1)-NH2): -4.61 ± 0.05 and 95%.
In data set [1], `CC[C@H](C)[C@H](NC(=O)[C@H](CC(N)=O)NC(=O)[C@@H]1CCCN1C(=O)[C@@H]1CCCN1C(=O)[C@H](CCCNC(=N)N)NC(=O)[C@H](CC(=O)O)NC(=O)[C@H](CC(N)=O)NC(=O)[C@H](CO)NC(=O)CC[C@H](C(=O)O)N1CCN(CC(=O)O)CCN(CC(=O)O)CC1)C(=O)N[C@@H](CC(C)C)C(=O)N[C@@H](CCC(N)=O)C(=O)N[C@@H](CCCCN)C(=O)N[C@@H](CCCNC(=N)N)C(=O)O` [[^67Ga]Ga-NODA-GA-TJ12P2(K^11), metal not drawn] (X1-SNDRPPNILQKR-OH) displayed a logD of -4.78 ± 0.05. For the same molecule, in data set [2] (37 °C, 1 h, read-out: radioligand intact after 1 h in human serum), the remaining at 1 h was found to be 9.3%. In data set [2] (human, serum, 37 °C, one-phase decay), this molecule returned a half-life of 17.4 min. Besides, the “degradation product in human serum” value in data set [2] (radio-HPLC or LC-MS after 24 h) is “formation of a single metabolite”.
`CC[C@H](C)[C@H](NC(=O)[C@H](CC(N)=O)NC(=O)[C@@H]1CCCN1C(=O)[C@@H]1CCCN1C(=O)[C@H](CCCNC(=N)N)NC(=O)[C@H](CC(=O)O)NC(=O)[C@H](CC(N)=O)NC(=O)[C@H](CO)NC(=O)CC[C@H](C(=O)O)N1CCN(CC(=O)O)CCN(CC(=O)O)CC1)C(=O)N[C@@H](CC(C)C)C(=O)N[C@@H](CCC(N)=O)C(=O)N[C@@H](CCC(N)=O)C(=O)N[C@@H](CCCNC(=N)N)C(=O)O` [[^67Ga]Ga-NODA-GA-TJ12P2(Q^11), metal not drawn] (X1-SNDRPPNILQQR-OH) returned a logD in data set [1] of -4.79 ± 0.03. For the same molecule, the remaining at 24 h in data set [2] (37 °C) was 72%.
SNDRPPNILQQRXXXK(NODA-GA) had a not cleaved in the data set “human serum” (37 °C) of 95% still intact after 24 h.
For the molecule SulfoCy3-SNDRPPNILQKR, in “human serum”, the cleaved bond result is given as “Lys11-arginine”.
